Reference: the supplement of paper PMC11451515

Tested on: P12-Ichikawa
Test: cell viability relative to DMSO control; higher = less cytotoxic
Conditions: 48 h
Summary of the method: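 NOMO1, SEM and P12-Ichikawa leukemia cells spent at least four passages adapting to each medium before use. They were seeded at 500 cells/well (NOMO1, SEM) or 1000 cells/well (P12-Ichikawa) in 5 μl in 1536-well plates and pin-dosed with library compounds in DMSO at 11 threefold steps from 47 μM down to 0.79 nM. After 48 h at 37°C, CellTiter-Glo One luminescence was read. Viability is reported as a percentage of the DMSO wells on each plate, with cell-free wells as background.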

[1] = HPLM + 10% dialyzed FBS, 0.000781 µM
[2] = HPLM + 10% dialyzed FBS, 0.00234 µM
[3] = HPLM + 10% dialyzed FBS, 0.00702 µM
[4] = HPLM + 10% dialyzed FBS, 0.0211 µM
[5] = HPLM + 10% dialyzed FBS, 0.0632 µM
[6] = HPLM + 10% dialyzed FBS, 0.19 µM
[7] = HPLM + 10% dialyzed FBS, 0.569 µM
[8] = HPLM + 10% dialyzed FBS, 1.71 µM
[9] = HPLM + 10% dialyzed FBS, 5.12 µM
[10] = HPLM + 10% dialyzed FBS, 15.4 µM
[11] = HPLM + 10% dialyzed FBS, 46.1 µM
[12] = RPMI 5 mM glucose + 10% FBS, 0.000781 µM
[13] = RPMI 5 mM glucose + 10% FBS, 0.00234 µM
[14] = RPMI 5 mM glucose + 10% FBS, 0.00702 µM
[15] = RPMI 5 mM glucose + 10% FBS, 0.0211 µM
[16] = RPMI 5 mM glucose + 10% FBS, 0.0632 µM
[17] = RPMI 5 mM glucose + 10% FBS, 0.19 µM
[18] = RPMI 5 mM glucose + 10% FBS, 0.569 µM
[19] = RPMI 5 mM glucose + 10% FBS, 1.71 µM
[20] = RPMI 5 mM glucose + 10% FBS, 5.12 µM
[21] = RPMI 5 mM glucose + 10% FBS, 15.4 µM
[22] = RPMI 5 mM glucose + 10% FBS, 46.1 µM
[23] = RPMI 5 mM glucose + 10% dialyzed FBS, 0.000781 µM
[24] = RPMI 5 mM glucose + 10% dialyzed FBS, 0.00234 µM
[25] = RPMI 5 mM glucose + 10% dialyzed FBS, 0.00702 µM
[26] = RPMI 5 mM glucose + 10% dialyzed FBS, 0.0211 µM
[27] = RPMI 5 mM glucose + 10% dialyzed FBS, 0.0632 µM
[28] = RPMI 5 mM glucose + 10% dialyzed FBS, 0.19 µM
[29] = RPMI 5 mM glucose + 10% dialyzed FBS, 0.569 µM
[30] = RPMI 5 mM glucose + 10% dialyzed FBS, 1.71 µM
[31] = RPMI 5 mM glucose + 10% dialyzed FBS, 5.12 µM
[32] = RPMI 5 mM glucose + 10% dialyzed FBS, 15.4 µM
[33] = RPMI 5 mM glucose + 10% dialyzed FBS, 46.1 µM

| SMILES | cell viability [1] | cell viability [2] | cell viability [3] | cell viability [4] | cell viability [5] | cell viability [6] | cell viability [7] | cell viability [8] | cell viability [9] | cell viability [10] | cell viability [11] | cell viability [12] | cell viability [13] | cell viability [14] | cell viability [15] | cell viability [16] | cell viability [17] | cell viability [18] | cell viability [19] | cell viability [20] | cell viability [21] | cell viability [22] | cell viability [23] | cell viability [24] | cell viability [25] | cell viability [26] | cell viability [27] | cell viability [28] | cell viability [29] | cell viability [30] | cell viability [31] | cell viability [32] | cell viability [33] |
| --- | --- | --- | --- | --- | --- | --- | --- | --- | --- | --- | --- | --- | --- | --- | --- | --- | --- | --- | --- | --- | --- | --- | --- | --- | --- | --- | --- | --- | --- | --- | --- | --- | --- |
| Cc1cnc(Nc2ccc(N3CCN(C)CC3)cc2)nc1Nc1cccc([S+](=O)([O-])NC(C)(C)C)c1 | 133% | 104% | 109% | 121% | 118% | 109% | 103% | 90.8% | 88.7% | 10.6% | 2.36% | 112% | 120% | 119% | 120% | 124% | 111% | 117% | 91.3% | 80.2% | 16.2% | 7.55% | 108% | 115% | 114% | 113% | 106% | 107% | 102% | 92.7% | 76.6% | 48.4% | 4.62% |
| COc1ccc2[nH]cc(CCNC(C)=O)c2c1 | – | – | – | – | – | – | – | – | – | – | – | 125% | 125% | 112% | 121% | 122% | 123% | 112% | 111% | 109% | 108% | 112% | – | – | – | – | – | – | – | – | – | – | – |
| OC[C@H]1OC(OC2=CC3=C(C(=C2)O)C(=O)\C(=C/O3)C4=CC=C(O)C=C4)[C@H](O)[C@@H](O)[C@@H]1O (stereo partly drawn) | 87.8% | 90.5% | 91.9% | 81.5% | 86.2% | 86.9% | 86.1% | 84.1% | 76% | 80.5% | 81.3% | 76.4% | 89.3% | 83.8% | 88.7% | 95.2% | 83.2% | 82.9% | 78% | 79% | 82.4% | 85.6% | 82.5% | 85.1% | 90.6% | 88.1% | 86% | 82.9% | 69.3% | 86.3% | 71.7% | 79.7% | 80% |
| C1CN\2C[C@@H](\N=C2S1)C3=CC=CC=C3 | 94.4% | 105% | 99.8% | 104% | 108% | 106% | 107% | 108% | 103% | 108% | 111% | 96.3% | 105% | 96% | 93.4% | 98.7% | – | 102% | 106% | 99.8% | 103% | 105% | 87% | 93.9% | 90.1% | 94.4% | 101% | 102% | 92.7% | 98.3% | 101% | 96.8% | 90.8% |
| N#CC[C@H](C1CCCC1)n1cc(-c2ncnc3[nH]ccc23)cn1 | 95.7% | 95.2% | 98.5% | 98.1% | 98.6% | 90.3% | 89.4% | 91.8% | 72.9% | 52.8% | 40% | 93.7% | 95.7% | 93.4% | 92.6% | 103% | 89.2% | 83.1% | 95.4% | 75.4% | 54.5% | 23.3% | 90.8% | 89% | 86.3% | 87.4% | 89.6% | 88.3% | 82.2% | 87.7% | 70.4% | 41.1% | 23.3% |
| C[C@@H](N)C1CC[C@@H](CC1)C(=O)NC2=CC=NC=C2 (stereo partly drawn) | 109% | 112% | 111% | 115% | 112% | 113% | 123% | 116% | 125% | 116% | 104% | 117% | 109% | 115% | 125% | 118% | 127% | 121% | 114% | 118% | 109% | 112% | 110% | 121% | 119% | 122% | 121% | 130% | 124% | 134% | 120% | 121% | 118% |
| O=C(NCC1CCOCC1)c1cnc(Nc2ccc(Cl)cc2Cl)nc1C(F)(F)F | 102% | 111% | 115% | 118% | 109% | 117% | 118% | 115% | 115% | 121% | 124% | 100% | 127% | 123% | 121% | 130% | 131% | 112% | 131% | 123% | 132% | 118% | 98% | 115% | 114% | 127% | 123% | 132% | 120% | 122% | 122% | 127% | 123% |
